Data published in article PMC9060465 (Proceedings of the National Academy of Sciences of the …, 2022).

Tests used:
human GIPR [1] = molecular target: T1, human GIPR (Homo sapiens, UniProt P48546); test: GIPR low density cAMP accumulation in HEK293 cells; format: cell-based
T1 construct: expressed in transfected cells; host or cells: HEK293
T1 sequence (P48546 22-466): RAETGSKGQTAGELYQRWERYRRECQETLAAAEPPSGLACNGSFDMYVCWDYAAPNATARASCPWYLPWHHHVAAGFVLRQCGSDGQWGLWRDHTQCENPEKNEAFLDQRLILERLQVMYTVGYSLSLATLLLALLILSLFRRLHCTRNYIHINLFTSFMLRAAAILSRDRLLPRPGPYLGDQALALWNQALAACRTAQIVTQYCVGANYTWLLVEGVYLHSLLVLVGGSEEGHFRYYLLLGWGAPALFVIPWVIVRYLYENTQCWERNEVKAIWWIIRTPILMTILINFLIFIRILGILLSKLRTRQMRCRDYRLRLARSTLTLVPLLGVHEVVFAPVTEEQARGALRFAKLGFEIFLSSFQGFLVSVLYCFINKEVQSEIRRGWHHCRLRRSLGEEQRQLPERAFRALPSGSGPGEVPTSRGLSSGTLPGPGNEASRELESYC
Method: (§1) Fig. 4. […] (B) Ligand-induced GTPγS binding of Gαs was performed using the GIPR-expressing membranes. […] (C) Agonist-stimulated cAMP production was measured in human GIPR expressing HEK293 cells. […] (E) Ligand-induced GTPγS binding of Gαs was performed using the GLP-1R-expressing membranes. […] (F) Agonist-stimulated cAMP production was measured in human GLP-1R-expressing HEK293 cells. […] Data presented are representative of n ≥ 3 independent experiments. Summarized data are shown in SI Appendix, Table 2. log M; log Molar.
(§2) We note that the albumin-binding propensity of fatty acid-modified peptides can confound a pharmacological comparison of molecules, given the common use of albumin and serum as nonspecific blocking agents in biological assays. Therefore, to obviate this, entirely albumin-free assays supplemented with bovine casein or bacitracin were used to prevent nonspecific binding ([10]).
(§3) Functional potency (EC50)
(§4) and efficacy (% Top) of ligands to induce Gα s -GTPγS binding and cAMP accumulation in HEK293 cells expressing GIPR were determined. The equilibrium affinity (KD) of
(§5) ligands for the immobilized ectodomain of the GIPR were quantified by surface plasmon resonance. […]
(§6) SPR data were analyzed using T200 evaluation software (Cytiva). All data are presented as geometric means with SEM and n values
(§7) according to established practices. ND, not determined. NA, not applicable.

GLP-1R [2] = molecular target: T2, GLP-1R (Homo sapiens, UniProt P43220); test: GLP-1R Gαs [35S]GTPγS binding, GLP-1R-expressing membranes; format: biochemical; set-up: expressed in transfected cells; host or cells: HEK293
T2 sequence (P43220 24-463): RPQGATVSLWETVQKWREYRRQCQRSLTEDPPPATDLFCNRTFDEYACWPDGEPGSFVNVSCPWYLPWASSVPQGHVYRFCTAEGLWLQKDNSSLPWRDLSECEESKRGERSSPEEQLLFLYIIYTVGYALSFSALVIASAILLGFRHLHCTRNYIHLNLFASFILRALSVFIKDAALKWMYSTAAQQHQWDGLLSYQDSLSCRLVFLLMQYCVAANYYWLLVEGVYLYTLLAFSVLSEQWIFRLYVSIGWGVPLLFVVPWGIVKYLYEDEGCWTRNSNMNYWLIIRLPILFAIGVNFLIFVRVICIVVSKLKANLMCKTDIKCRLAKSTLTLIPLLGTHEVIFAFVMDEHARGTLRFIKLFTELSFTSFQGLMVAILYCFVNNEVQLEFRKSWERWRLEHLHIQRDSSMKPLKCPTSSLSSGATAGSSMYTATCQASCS
Method: as §1
as §2, with “([10]). […]” for “([10]).”
(§8) Middle Panel: The affinity (Ki) of ligands for the GLP-1R was […]
(§9) Functional potency (EC50) and efficacy (% Top) of ligands to induce Gα s-GTPγS binding and cAMP accumulation in HEK293 cells expressing GLP-1R were determined. The equilibrium affinity (KD) of ligands for the immobilized ectodomain of the GLP-1R were quantified by surface plasmon resonance. […]
(§10) SPR data were analyzed using T200 evaluation software (Cytiva). All data are presented as geometric means with SEM and n values according to established practices. ND, not determined. NA, not applicable.

human GIPR [3] = molecular target: T1, human GIPR; test: GIPR Gαs [35S]GTPγS binding, GIPR-expressing membranes; format: biochemical
Method: as §1, §2, §3, §4, §5, §6, §7

[4] = molecular target: T3, ECD of human GLP-1R (amino acids 24 to 145) (Homo sapiens, UniProt P43220); test: GLP-1R extracellular domain binding by surface plasmon resonance
T3 construct: GLP-1R (amino acids 24 to 145); 6His; made in house; host or cells: CHO cells
T3 sequence (P43220 24-145): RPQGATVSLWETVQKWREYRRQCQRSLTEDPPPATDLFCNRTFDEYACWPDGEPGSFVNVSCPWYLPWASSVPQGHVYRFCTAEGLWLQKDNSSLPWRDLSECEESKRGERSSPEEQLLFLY
Text: DNA encoding each protein was transfected into CHO cells for expression. After expression, the proteins were purified by affinity chromatography (HIS-Trap Ni, Cytiva) followed by size exclusion chromatography using a HiLoad 26/600 Superdex 75pg column (Cytiva) with PBS buffer. […] Surface plasmon resonance measurements were made using a Biacore T200 (Cytiva) and analyzed using T200 Evaluation Software Version 3.1. Receptor ectodomain proteins were covalently immobilized (∼250 resonance units) on Sensor Chip CM4 BR100534 using the Amine coupling Immobilization Wizard in the Biacore T200 Control Software Version 2.0.2. Running buffer was HBS-EP (10 mM Hepes, 150 mM NaCl, 3 mM EDTA, 0.05% P20 [pH 7.6]; Teknova). Concentration series for each sample were made by serial dilution in running buffer. The samples were injected for 150 sec at a 30-µL/min flow rate, followed by 300 sec of dissociation. The surface was regenerated between samples with 10 mM glycine (pH 1.7).
Fig. S10. Receptor extracellular domain (ECD) binding affinity of peptides. Purified GIPR (left column) and GLP-1R (right column) extracellular domains were immobilized to biosensor […]
mM). […]
and efficacy (% Top) of ligands to induce Gα s -GTPγS binding and cAMP accumulation in HEK293 cells expressing GIPR were determined. The equilibrium affinity (KD) of ligands for the immobilized ectodomain of the GIPR were quantified by surface plasmon resonance. […]
as §9
recruitment to the GLP-1R were determined using the NanoBRET approach. The potency (EC50) and efficacy (% Top) for ligands to induce GLP-1R Internalization were determined using diffusion-enhanced resonance energy transfer. […]
relative efficacy for NanoBRET assays. SPR data were analyzed using T200 evaluation software (Cytiva). […] ND, not determined. […]

GLP-1R [5] = molecular target: T2, GLP-1R; test: GLP-1R low density cAMP accumulation in HEK293 cells; format: cell-based; set-up: expressed in transfected cells; host or cells: HEK293
Method: as §1
as §2, with “([10]). […]” for “([10]).”
as §8, §9, §10

[6] = efficacy (% Top), normalized to GIP(1-42), (SEM)
[7] = efficacy (% Top), normalized to GLP-1(7-36), (SEM)

SMILES: CC[C@H](C)[C@H](NC(=O)[C@H](CC(C)C)NC(=O)[C@H](Cc1c[nH]c2ccccc12)NC(=O)[C@H](CCC(N)=O)NC(=O)[C@@H](NC(=O)[C@H](Cc1ccccc1)NC(=O)[C@H](C)NC(=O)[C@H](CCCCN)NC(=O)[C@H](CCC(N)=O)NC(=O)[C@H](C)NC(=O)[C@@H](NC(=O)[C@H](CCCCN)NC(=O)[C@H](CC(=O)O)NC(=O)[C@H](CC(C)C)NC(=O)C(C)(C)NC(=O)[C@@H](NC(=O)[C@H](CO)NC(=O)[C@H](Cc1ccc(O)cc1)NC(=O)[C@H](CC(=O)O)NC(=O)[C@H](CO)NC(=O)[C@@H](NC(=O)[C@H](Cc1ccccc1)NC(=O)[C@@H](NC(=O)CNC(=O)[C@H](CCC(=O)O)NC(=O)C(C)(C)NC(=O)[C@@H](N)Cc1ccc(O)cc1)[C@@H](C)O)[C@@H](C)O)[C@@H](C)CC)[C@@H](C)CC)C(C)C)C(=O)N[C@@H](C)C(=O)NCC(=O)NCC(=O)N1CCC[C@H]1C(=O)N[C@@H](CO)C(=O)N[C@@H](CO)C(=O)NCC(=O)N[C@@H](C)C(=O)N1CCC[C@H]1C(=O)N1CCC[C@H]1C(=O)N1CCC[C@H]1C(=O)N[C@@H](CO)C(N)=O [Tzp∆C20]
- EC50 (human GIPR [1]; cAMP accumulation, HEK293 cells expressing GIPR, albumin-free, geometric mean (SEM, n)): 0.0163 nM
- GIPR Low Density cAMP Top (human GIPR [1]; [6]): 107 (4) %
- EC50 (GLP-1R [2]; Gαs-GTPγS binding, GLP-1R-expressing membranes, albumin-free, geometric mean (SEM, n), read-out: GLP-1R GTPγS Recruitment EC50): 0.626 nM
- GLP-1R GTPγS Recruitment Top (GLP-1R [2]; [7]): 74.8 (9.1) %
- EC50 (human GIPR [3]; Gαs-GTPγS binding, GIPR-expressing membranes, albumin-free, geometric mean (SEM, n), read-out: GIPR GTPγS Recruitment EC50): 0.0733 nM
- GIPR GTPγS Recruitment Top (human GIPR [3]; [6]): 91.0 (3.5) %
- Kd ([4]; GLP-1R SPR KD, equilibrium affinity, immobilized GLP-1R ectodomain, Biacore T200, HBS-EP pH 7.6, (SEM, n)): 111 nM
- koff ([4]; read-out: GLP-1R ECD kinetic constant Koff): 0.0254 s⁻¹
- EC50 (GLP-1R [5]; cAMP accumulation, HEK293 cells expressing GLP-1R, albumin-free, geometric mean (SEM, n)): 1.05 nM
- GLP-1R Low Density cAMP Top (GLP-1R [5]; [7]): 105 (2) %
